Test results from the supplement of paper PMC11061612.

What was measured:
Assay in all cases: Bliss excess, mean over the matrix (fraction); higher = more synergy
[1] = system: G-292-Clone-A141B1 (Osteosarcoma)
Summary of the method: (§1)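 Cell lines in DMEM/F12 or RPMI with 10% FBS were plated in 1536-well plates, held 24 hours at 37°C, 5% CO2, then given two-drug dose matrices for 72 hours (DMSO typically 0.2%). Viability was read by CellTiter-Glo 2.0 luminescence and scaled as inhibition from 0 (vehicle wells) to 1 (blank wells). Combination Emax is the second-highest inhibition in the matrix; Bliss excess is observed combination effect minus expected EA + EB − EA·EB, EA and EB being single-agent effects.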

[2] = system: SW1088 (Low Grade Glioma)
Summary of the method: as §1

[3] = system: DB (B-Cell Non-Hodgkin's Lymphoma)
Summary of the method: as §1

[4] = system: SW1990 (Pancreatic Carcinoma)
Summary of the method: as §1

[5] = system: HCC2157 (Breast Carcinoma)
Summary of the method: as §1

[6] = system: CTV-1 (T-Lymphoblastic Leukemia)
Summary of the method: as §1

[7] = system: MDA-MB-231 (Breast Carcinoma)
Summary of the method: as §1

[8] = system: TE-5 (Esophageal Squamous Cell Carcinoma)
Summary of the method: as §1

[9] = system: SW780 (Bladder Carcinoma)
Summary of the method: as §1

[10] = system: KM-H2 (Hodgkin's Lymphoma)
Summary of the method: as §1

NCI-H2595 (Mesothelioma) = system: NCI-H2595 (Mesothelioma)
Summary of the method: as §1

NCI-H2369 (Mesothelioma) = system: NCI-H2369 (Mesothelioma)
Summary of the method: as §1

[11] = system: COR-L23 (Non-Small Cell Lung Carcinoma)
Summary of the method: as §1

[12] = system: NALM-6 (B-Lymphoblastic Leukemia)
Summary of the method: as §1

[13] = system: IHH-4 (Thyroid Gland Carcinoma)
Summary of the method: as §1

[14] = system: SNU-C5 (Colorectal Carcinoma)
Summary of the method: as §1

SN12C (Kidney Carcinoma) = system: SN12C (Kidney Carcinoma)
Summary of the method: as §1

[15] = system: LU-99A (Non-Small Cell Lung Carcinoma)
Summary of the method: as §1

[16] = system: DOV13 (Ovarian Carcinoma)
Summary of the method: as §1

[17] = system: NCI-H1694 (Small Cell Lung Carcinoma)
Summary of the method: as §1

Row | SMILES | Bliss excess [1] | Bliss excess [2] | Bliss excess [3] | Bliss excess [4] | Bliss excess [5] | Bliss excess [6] | Bliss excess [7] | Bliss excess [8] | Bliss excess [9] | Bliss excess [10] | Bliss excess (NCI-H2595 (Mesothelioma)) | Bliss excess (NCI-H2369 (Mesothelioma)) | Bliss excess [11] | Bliss excess [12] | Bliss excess [13] | Bliss excess [14] | Bliss excess (SN12C (Kidney Carcinoma)) | Bliss excess [15] | Bliss excess [16] | Bliss excess [17]
1 | CN(C)CCCOc1ccc(-c2ccc3ncc4c(c3c2)n(C2CCOCC2)c(=O)n4C)cn1 [AZD0156] + O=C(c1cc(Cc2n[nH]c(=O)c3ccccc23)ccc1F)N1CCN(C(=O)C2CC2)CC1 [Olaparib] (first compound max 3 µM, partner max 3 µM) | -0.0003 | 0.022 | 0.149 | -0.0285 | 0.0313 | 0.0654 | 0.0221 | -0.0241 | -0.0007 | 0.0575 | -0.0288 | -0.0455 | -0.0155 | 0.173 | 0.0949 | 0.0621 | -0.0357 | -0.0145 | 0.0258 | 
2 | C[C@@H]1COCCN1c1cc(C2([S@](C)(=N)=O)CC2)nc(-c2ccnc3[nH]ccc23)n1 [AZD6738] + O=C(c1cc(Cc2n[nH]c(=O)c3ccccc23)ccc1F)N1CCN(C(=O)C2CC2)CC1 [Olaparib] (first compound max 10 µM, 7x7, partner max 10 µM) | 0.0195 | 0.0087 | -0.0359 | -0.0071 | 0.0441 | 0.043 | -0.0335 | -0.021 | -0.0047 | 0.024 | -0.0073 | -0.0344 | -0.034 | 0.0015 | 0.0506 | -0.0258 | -0.0284 | -0.0289 | 0.0127 | 0.0089
3 | Cc1cc2ncnn2cc1Nc1ncc2c(n1)n(C1CCOCC1)c(=O)n2C [AZD7648] + CCN(CCO)CCCOc1ccc2c(Nc3cc(CC(=O)Nc4cccc(F)c4)[nH]n3)ncnc2c1 [AZD2811] (first compound max 10 µM, 7x7, partner max 1 µM) | 0.0147 | -0.0312 | 0.0438 | -0.0199 | 0.0278 | 0.0709 | 0.0014 | -0.0237 | -0.018 | 0.0507 | 0.0183 | 0.0252 | -0.023 | -0.0358 | 0.0429 | 0.0093 | -0.01 | 0.0216 | -0.0551 | 0.0483
4 | CN(C)CCCOc1ccc(-c2ccc3ncc4c(c3c2)n(C2CCOCC2)c(=O)n4C)cn1 [AZD0156] + CCN(CCO)CCCOc1ccc2c(Nc3cc(CC(=O)Nc4cccc(F)c4)[nH]n3)ncnc2c1 [AZD2811] (first compound max 1 µM, 7x7, partner max 1 µM) | -0.0669 | -0.0291 | -0.0221 | -0.0536 | 0.112 | 0.0458 | -0.0296 | -0.0536 | -0.0268 | 0.0446 | -0.0334 | -0.0392 | -0.0073 | -0.0755 | 0.0153 | 0.0043 | -0.0563 | -0.0341 | 0.0385 | 0.0516
5 | CC(=O)c1c(C)c2cnc(Nc3ccc(N4CCNCC4)cn3)nc2n(C2CCCC2)c1=O [Palbociclib] + Cn1cnc2c(F)c(Nc3ccc(Br)cc3Cl)c(C(=O)NOCCO)cc21 [Selumetinib] (first compound max 10 µM, 7x7, partner max 10 µM) | -0.0291 | -0.0327 | -0.0167 | -0.0228 | -0.036 | 0.0496 | 0.0613 | -0.0511 | -0.0008 | 0.0036 | -0.0429 | -0.0483 | 0.0224 | 0.0335 | 0.0575 | -0.0615 | -0.0321 | -0.0398 | -0.233 | -0.0989
6 | CCc1c2c(nc3ccc(O)cc13)-c1cc3c(c(=O)n1C2)COC(=O)[C@]3(O)CC [SN-38] + O=C(c1cc(Cc2n[nH]c(=O)c3ccccc23)ccc1F)N1CCN(C(=O)C2CC2)CC1 [Olaparib] (first compound max 0.3 µM, 7x7, partner max 10 µM) | -0.0332 | 0.0683 | 0.0534 | 0.0001 |  | 0.0665 | 0.107 | 0.0521 |  |  | 0.0184 | 0.0128 | 0.0328 | 0.0775 | 0.0356 |  | 0.0457 | 0.0452 | 0.0456 | 
7 | COc1nnc2ccc(N3CCC(c4ccc(OCCN5CCN(C)C(=O)[C@H]5C)cc4)CC3)nn12 [AZD5153] + Cn1cnc2c(F)c(Nc3ccc(Br)cc3Cl)c(C(=O)NOCCO)cc21 [Selumetinib] (first compound max 1 µM, 7x7, partner max 10 µM) | -0.0388 | 0.029 | 0.0093 | -0.0209 | -0.0038 | 0.0009 | 0.0516 | 0.0184 | -0.058 | -0.0839 | -0.0604 | -0.048 | -0.0516 | 0.0085 | 0.0085 | -0.0116 | 0.0158 | -0.0118 | -0.0263 | -0.0641
8 | Cc1cc2ncnn2cc1Nc1ncc2c(n1)n(C1CCOCC1)c(=O)n2C [AZD7648] + O=C(c1cc(Cc2n[nH]c(=O)c3ccccc23)ccc1F)N1CCN(C(=O)C2CC2)CC1 [Olaparib] (first compound max 10 µM, 7x7, partner max 10 µM) | -0.0855 | -0.067 | -0.0564 | -0.054 | 0.0073 | 0.0056 | -0.0752 | -0.0431 | -0.0289 | -0.0127 | -0.0258 | -0.05 | 0.0328 | -0.027 | -0.0313 | -0.0064 | -0.0469 | -0.0556 | -0.0556 | -0.0004
9 | NC1(C(=O)N[C@@H](CCO)c2ccc(Cl)cc2)CCN(c2ncnc3[nH]ccc23)CC1 [Capivasertib] + CCN(CCO)CCCOc1ccc2c(Nc3cc(CC(=O)Nc4cccc(F)c4)[nH]n3)ncnc2c1 [AZD2811] (first compound max 10 µM, 7x7, partner max 1 µM) | 0.0116 | -0.0088 | 0.0338 | -0.033 | -0.0286 | 0.0423 | -0.0154 | -0.0283 | 0.015 | -0.0195 | -0.0718 | -0.0446 | -0.0446 | -0.0987 | 0.0289 | -0.0571 | -0.0536 | 0.0154 | -0.0392 | 0.0503
10 | CC(=O)c1c(C)c2cnc(Nc3ccc(N4CCNCC4)cn3)nc2n(C2CCCC2)c1=O [Palbociclib] + CN(CC[C@H](CSC1=CC=CC=C1)NC2=C(C=C(C=C2)S(=O)(=O)NC(=O)C3=CC=C(C=C3)N4CCC(CC4)[C@H](C5=CC=CC=C5C6=CC=C(C=C6)Cl)O)S(=O)(=O)C(F)(F)F)CCO [AZD4320] (first compound max 10 µM, 7x7, partner max 1 µM) |  |  |  |  | 0.0149 | -0.0365 |  |  | -0.136 | -0.0282 |  | -0.0408 | -0.0608 |  |  | 0.025 |  | -0.119 |  | 0.0632
11 | COc1cc2ncnc(Nc3ccc(F)c(Cl)c3)c2cc1OCCCN1CCOCC1 [Gefitinib] + CC(C)n1c(=O)n(C)c2cnc3cc(F)c(-c4ccc(OCCCN5CCCCC5)nc4)cc3c21 [AZD1390] (first compound max 10 µM, 7x7, partner max 0.3 µM) | -0.0548 | -0.0688 | 0.0332 | -0.0441 | -0.0136 | -0.0468 | -0.0659 | -0.045 | -0.0642 | -0.0312 | -0.0596 | -0.0614 | -0.069 | -0.0643 | -0.043 | -0.0751 | -0.0255 |  | -0.1 | 
12 | C[C@@H](c1ccc2nccn2c1)n1nnc2ncc(-c3cnn(C)c3)nc21 [Savolitinib] + CN(CC[C@H](CSC1=CC=CC=C1)NC2=C(C=C(C=C2)S(=O)(=O)NC(=O)C3=CC=C(C=C3)N4CCC(CC4)[C@H](C5=CC=CC=C5C6=CC=C(C=C6)Cl)O)S(=O)(=O)C(F)(F)F)CCO [AZD4320] (first compound max 1 µM, 7x7, partner max 1 µM) |  |  |  |  | -0.0331 | -0.0887 |  |  | -0.0468 | -0.0267 |  | -0.0522 | -0.0349 |  |  | -0.0448 |  | -0.0558 |  | -0.042
13 | C=CCn1c(=O)c2cnc(Nc3ccc(N4CCN(C)CC4)cc3)nc2n1-c1cccc(C(C)(C)O)n1 [AZD1775] + C1CN(CCC1(C(=O)N[C@@H](CCO)C2=CC=C(C=C2)Cl)N)C3=NC=NC4=C3C=CN4 [Capivasertib] (first compound max 3 µM, partner max 3 µM) | -0.0313 | -0.0707 | -0.0264 | -0.0209 | -0.0183 | 0.0399 | -0.0181 | 0.0129 | 0.0017 | 0.0333 | -0.0787 | 0.0035 | 0.0185 | -0.0371 | -0.005 | -0.034 | -0.0516 | -0.0106 | 0.0339 | 
14 | Cc1nc(Nc2ncc(C(=O)Nc3c(C)cccc3Cl)s2)cc(N2CCN(CCO)CC2)n1 [Dasatinib] + CC(=O)Nc1cccc(-n2c(=O)n(C3CC3)c(=O)c3c(Nc4ccc(I)cc4F)n(C)c(=O)c(C)c32)c1 [Trametinib] (first compound max 2 µM, 7x7, partner max 1 µM) |  | -0.0087 | -0.0005 | 0.0235 | -0.0199 | 0.0181 | -0.0145 | -0.0099 | 0.0848 | -0.0367 | -0.0413 | -0.0535 | 0.0284 | 0.0217 | 0.112 | -0.013 | -0.0254 | -0.0137 | 0.0135 | -0.0311
15 | COc1nnc2ccc(N3CCC(c4ccc(OCCN5CCN(C)C(=O)[C@H]5C)cc4)CC3)nn12 [AZD5153] + CN(CC[C@H](CSC1=CC=CC=C1)NC2=C(C=C(C=C2)S(=O)(=O)NC(=O)C3=CC=C(C=C3)N4CCC(CC4)[C@H](C5=CC=CC=C5C6=CC=C(C=C6)Cl)O)S(=O)(=O)C(F)(F)F)CCO [AZD4320] (first compound max 1 µM, 7x7, partner max 1 µM) |  |  |  |  | 0.0047 | 0.0057 |  |  | -0.0091 | -0.0319 |  | -0.0032 | -0.0014 |  |  | 0.0451 |  | 0.128 |  | 0.0607
